# Values joined by “and” are separate entries in the source; they are usually repeats but may differ in a detail not shown here. Equal entries are not always repeated.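 Cells were grown in 96-well plates and exposed to each compound for 48 hours at five concentrations; endpoints were interpolated linearly between bracketing concentrations, or set to the highest concentration if not reached. GI50: concentration for 50% inhibition of growth. TGI: concentration producing complete growth inhibition.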
# What was measured:
# Assay in all cases: NCI tumour cell line growth inhibition, 48 h
# A549 NSCLC = test system: A549 NSCLC
# CAKI-1 renal = test system: CAKI-1 renal
# HS 578T breast = test system: HS 578T breast
# HT29 colon = test system: HT29 colon
# MDA-MB-435 = test system: MDA-MB-435
# NCI-H522 lung = test system: NCI-H522 lung
# OVCAR-4 ovarian = test system: OVCAR-4 ovarian
# OVCAR-5 ovarian = test system: OVCAR-5 ovarian
# SF-539 CNS = test system: SF-539 CNS
# T-47D breast = test system: T-47D breast
Structure (SMILES),TGI (A549 NSCLC),TGI (CAKI-1 renal),TGI (HS 578T breast) [µM],TGI (HT29 colon) [µM],TGI (MDA-MB-435) [µM],TGI (NCI-H522 lung) [µM],TGI (OVCAR-4 ovarian) [µM],TGI (OVCAR-5 ovarian),TGI (SF-539 CNS),TGI (T-47D breast) [µM],GI50 (A549 NSCLC),GI50 (CAKI-1 renal),GI50 (HS 578T breast) [µM],GI50 (HT29 colon) [µM],GI50 (MDA-MB-435) [µM],GI50 (NCI-H522 lung),GI50 (OVCAR-4 ovarian) [µM],GI50 (OVCAR-5 ovarian),GI50 (SF-539 CNS),GI50 (T-47D breast) [µM]
O=C(O)C1C(=O)Oc2c(cccc2[N+](=O)[O-])C1O (stereo unspecified),> 100 µM,> 100 µM,> 100,> 100,> 100,> 100,> 100,> 100 µM,> 100 µM,> 100,,,,,,,,,,
C[C@@H](NC(=O)[C@@H](CC(=O)N1CCC(N2CCCCC2)CC1)N1C(=O)[C@@H](N2C(=O)OC[C@@H]2c2ccccc2)[C@H]1/C=C/c1cccc(Cl)c1)c1ccccc1,15.6 µM,4.17 µM,7.16,7.95,3.17,4.14,24.8,20.9 µM,3.38 µM,4.33,4.34 µM,1.89 µM,2.77,2.78,1.64,1.79 µM,10.5,5.78 µM,1.76 µM,1.9
CCN(CC)CCCC(C)Nc1c2ccc(Cl)cc2nc2cc(OC)c(OC)cc12 (stereo unspecified),4.56 µM,5.78 µM,10.1,10.3,3.08,5.76,3.33,8.53 µM,3.19 µM,32.5,1.85 µM,2.01 µM,2.75,1.54,1.65,2.35 µM,1.34,2.18 µM,1.64 µM,7.36
O=c1oc(-c2ccccc2)cc2cccc(O)c12,> 64.6 µM,> 81.7 µM,54.7,> 100,> 100,> 100,> 100,> 100 µM,5.21 µM,> 100,24.7 µM,37.3 µM,23.8,> 56.9,69,49.9 µM,> 100,55.3 µM,0.927 µM,13.6
Cc1cc([N+](=O)[O-])ccc1NS(=O)(=O)c1cc(Cl)ccc1Cl,> 51 µM,> 28.4 µM,60.5,> 100,36.6,8.68,> 30.8,> 100 µM,20.7 µM,8.01,2.91 µM,2.54 µM,4.23,3.81,2.77,2.44 µM,2.42,5.1 µM,3.45 µM,1.92
CC(=O)OCc1ccc(O)c(C=O)c1,> 100 µM,> 100 µM,> 100,> 100,> 100,> 100,> 100,> 100 µM,> 100 µM,> 100,,,,,,,,,,
O=C(O)c1ccc([S-])cc1.[Au+].c1ccc(CN2[CH-]N(Cc3ccccc3)C(c3ccccc3)=C2c2ccccc2)cc1,1.63 µM,,2.84,1.58,1.46,1.2,1.3,2.2 µM,1.78 µM,1.53,0.358 µM,,0.459,0.434,0.417,0.285 µM,0.373,0.918 µM,0.505 µM,0.312
CN[C@@H]1C[C@H]2O[C@@](C)([C@@H]1OC)n1c3ccccc3c3c4c(c5c6ccccc6n2c5c31)C(=O)N[C@H]4O,3 µM,0.0305 µM,0.143,1.38,2.56,0.878,> 10,,0.115 µM,0.163,0.0465 µM,0.00463 µM,0.0191,0.0827,0.0613,0.103 µM,0.125,,0.0266 µM,0.00739
O=C1C(Cl)=C(Nc2cccc(O)c2)C(=O)N1Cc1ccc(Cl)cc1,37.4 µM,10.1 µM,> 100,,10.1,21.7,> 100,31.6 µM,16.6 µM,54,5.22 µM,1.74 µM,8.51,,1.22,3.18 µM,11.2,15.6 µM,2.63 µM,10.7
COc1ccc2nc(NCN3C(=O)c4ccccc4C3=O)sc2c1,> 100 µM,,> 100,> 100,> 100,> 100,> 100,> 100 µM,> 100 µM,> 100,,,,,,,,,,
NC(=S)N/N=C/c1ccc(O)cn1,> 1500 µM and 584 µM,178 µM and 339 µM,> 1500,> 929,> 1130,,,> 1500 µM and 928 µM,23.6 µM and 10.9 µM and 17.2 µM,> 451,33.2 µM and 41.1 µM,32.1 µM and 21.8 µM and 8.53 µM,,37.9,,10.2 µM and 1.41 µM and 7 µM,,30.2 µM and 34.8 µM,4.27 µM and 2.77 µM,
Cc1cc(Oc2cnc(=O)[nH]c2)cs1,> 100 µM,> 100 µM,> 100,> 100,> 100,> 100,,> 100 µM,> 100 µM,> 100,,,,,,,,,,

# From PubChem BioAssay (NCI)
